Test results taken from patent US20110064773A1, “PHARMACEUTICAL COMPOSITIONS COMPRISING A THYROID HORMON AND THEIR THERAPEUTIC USE” (UNIVERSITE JOSEPH FOURIER, priority 2007, published 2011).

What was measured:
Wistar rats [1] = test: Growth rate (body weight) and food intake of Wistar rats; format: in vivo, rat
Protocol: Adult male rat bred in the animal room facilities of Laboratory of Fundamental and Applied Bioenergetics (Wistar strain) or purchased from Charles-River Laboratories, Domaine des oncins, L'ARBRESLE France [(genetically obese normoglycemic (Zucker or Fa/Fa) or diabetic (ZDF)] were caged individually in stainless steel hanging cages and maintained in a 22° C., 50±10% relative humidity and 12 h:12 h light:dark environment. All animals were fed ad libitum with a standard rat chow (Safe A04, Villemoisson, France) and tap water. Body mass and food intake were recorded twice/thrice a week and fresh food was provided at the same time to ensure minimal disturbance to the animals' food behavior.
Eight-week old rats (300 g±10 g) were anesthetized by simultaneous intraperitoneal injection of diazepam 4 mg/kg and ketamine 100 mg/kg. In order to maintain body temperature during the surgery (10 min), animals were placed on a warm blanket. After interscapular shaving, a small incision of 0.5 cm of the skin allows the subcutaneous implantation of a small pellet (containing rT3 or 3′,3-T2) with a 10-gauge precision trochar. The pellets, manufactured by Innovative Research of America (Sarasota, Fla., USA) are constituted of a biodegradable matrix that effectively and continuously release the active product in the animal.
[…] (reverseT3) or 3-3′ diiodothyronine (3-3′ T2) were used at different doses (5, 0.5, or 0.1 mg/pellet) were implanted in order to provide a continuous and constant drug delivery over 60 days (which represents 25 μg, 2.5 μg or 0.5 μg/day/100 g BW).
Wistar rats were treated with rT3 hormone by a daily intraperitoneal injection (IP) (25 μg/100 g BW), a daily sub-cutaneous injection (SC) (25 μg/100 g BW), or a per os administration included in the rat food (25 μg/100 g BW). The continuous and constant administration was performed by using a pellet (25 μg/100 g BW).
However the role of the administration site was further investigated by comparing continuous administration of rT3 by osmotic pump implanted either subcutaneously or intraperitonally with the reference treatment administered by sub-cutaneous pellets. Wistar rats were treated for 21 days with placebo, sub-cutaneous pellet or sub-cutaneous or intraperitoneal osmotic pumps. rT3 was administered continuously (2.5 μg/100 g).
Wistar rats were treated by a continuous and constant administration of low doses of rT3 by 3 different methods of administration: • a sub-cutaneous pellet, • an osmotic pump placed under the skin, and • an osmotic pump placed in the peritoneal cavity.

liver mitochondria = test: Rate of liver mitochondrial oxygen consumption (JO2) of treated Wistar rats; format: in vivo, rat; conditions: high dose 250 μg/kg BW/day, various substrates, vs placebo
Protocol: (§1) The major part of the liver and the red part of each quadriceps were rinsed, and chopped into isolation medium (250 mM sucrose, 20 mM Tris-HCl and 1 mM EGTA-Tris, pH 7.4). Nuclei and cell debris were removed by centrifugation at 800 g for 10 min. Mitochondria were then isolated from the supernatant by spinning twice at 8,000 g for 10 minutes. The mitochondrial pellet was resuspended in 0.5 ml of isolation buffer and kept on ice. Mitochondrial protein was measured by the bicinchoninic acid method (Pierce, Rockford, Ill.). The final mitochondrial suspensions were maintained on ice and were used for measurements of oxygen consumption rate.
(§2) The rate of mitochondrial oxygen consumption (JO2) was measured at 30° C. in an incubation chamber with a Clark-type O2 electrode filled with 2 ml of incubation medium (125 mM KCl, 10 mM Pi-Tris, 20 mM Tris-HCl, 0.1 mM EGTA, pH 7.2). All measurements were performed using mitochondria (1.0 or 0.2 mg mitochondrial protein/ml for liver and skeletal muscle) incubated either with various substrates: glutamate/malate (5 mM/2.5 mM) and succinate (5 mM), alone or in combination, palmitoyl carnitine (55 μM) and octanoyl carnitine (100 μM). For each substrate, JO2 was recorded in the presence of the substrate alone (State 2) and following the addition of 1 mM ADP (state 3). Oligomycin (1.25 μg/mg protein) was added to the mitochondrial suspension to determine the non-phosphorylating respiratory rate (state 4). The incubation medium was constantly stirred with a built-in electromagnetic stirrer and bar flea. The efficiency of the mitochondrial oxidative phosphorylation was assessed by the state 3/state 4 ratio which measures the degree of control imposed on oxidation by phosphorylation (respiratory control ratio, RCR).

muscle mitochondria = test: Rate of muscle mitochondrial oxygen consumption (JO2) of treated Wistar rats; format: in vivo, rat; conditions: 250 μg/kg BW/day, vs placebo
Protocol: as §1, §2

Wistar rats [2] = test: Body composition (adipose tissues, skeletal muscles, brown adipose tissue) of Wistar rats; format: in vivo, rat; conditions: three weeks, vs placebo
Description: (§3) At the end of the experimental period, animals were sacrificed by decapitation, in order to avoid the well-known effects of general anesthetics on mitochondrial metabolism. Blood samples were immediately collected and plasma was frozen for subsequent determination of serum metabolites and hormones. Liver, muscles and fat depots were quickly excised and weighed. Liver median lobe was rapidly freeze-clamped. Muscles (plantaris, soleus and gastrocnemius) were frozen in isopentane precooled in liquid nitrogen. Mesenteric fat consisted of adipose tissue surrounding the gastro-intestinal tract from the gastro-oesophageal sphincter to the end of the rectum with special care taken in distinguishing and removing the pancreas. Retroperitoneal fat pad was taken as the distinct depot behind each kidney along the lumbar muscles. Epididymal fat consisted of adipose tissue on top of the epididymis. For subcutaneous depot measurement, a rectangular piece of skin was taken on the right side of each animal from the median line of the abdomen between the spine and the right hip to the first rib. Interscapular brown adipose tissue was removed and dissected free from adjacent muscles and white adipose tissue. The heart ventricles, the right kidney and the spleen were also excised, weighed and frozen.

Wistar rats [3] = test: Indirect calorimetry (energy expenditure, respiratory quotient) of Wistar rats; format: in vivo, rat; conditions: 25 μg/100 g BW pellet, vs placebo
Description: Energy expenditure as well as the nature of substrate oxidized (carbohydrates or lipids) were investigated by indirect calorimetry. This principle is based on the determinations of CO2 release (VCO2) and O2 consumption (VO2) by each animal. It assumes that O2 is entirely involved in substrate oxidation in the respiratory chain (leading to water production) while CO2 release is related to substrate decarboxylation (in the Krebs' cycle). These measurements allow assessing energy expenditure (EE) and respiratory quotient ([…], RQ). EE represent the absolute energy dissipation during rest and activity. RQ is a relative measurement indicating the ratio of carbohydrate versus lipid involved in oxidative pathway. A ratio of 1.0 indicates exclusive carbohydrate oxidation while a ratio of 0.7 indicates exclusive lipid oxidation. Each value between these two extreme values indicates the relative proportion of each substrate (of note protein oxidation was not evaluated). As an example, RQ approaches 0.7 during fasting, indicating lipid oxidation, conversely after feeding RQ increases close to 1 indicating carbohydrate oxidation resulting from food intake and blood insulin rise. Likewise, animals fed high-carbohydrate diets have higher RQs than those fed high-fat diets.
The indirect calorimetry system (Panlab, Barcelona, Spain) consists of cages, pumps, flow controllers, valves, and analyzers. It is computer-controlled in order to sequentially measure O2 and CO2 concentrations as well as air flow in four separate cages allowing four simultaneous determinations. Rats are isolated in one of the four metabolic chambers, and room air is used as a reference to monitor ambient O2 and CO2 concentrations periodically.
At predefined intervals, the computer sends a signal to store differential CO2 and O2 concentrations, flow rate, allowing computing VCO2, VO2, RQ, and EE (Weir equation) with data acquisition hardware (Metabolism, Panlab, Barcelona, Spain).

Wistar rats [4] = test: Plasma concentrations of glucose, triglycerides, cholesterol, FFA and HDL in Wistar rats; format: in vivo, rat; conditions: day of sacrifice, vs placebo
Description: These measurements were done on venous blood of the rats the day of the sacrifice.
as §3
Glucose and 3-hydroxybutyrate (3-HB) were measured enzymatically and non esterified fatty acid (NEFA) by colorimetric assay (Wako Chemicals).
Triglycerides and cholesterol were measured by classical routine automate apparatus.

[5] = system: normal rats receiving a high-fat diet; conditions: daily peritoneal injection, vs untreated rats; cited from earlier work
[6] = system: nuclear receptors of the thyroid hormones, TRα-1 and TRβ-1; conditions: literature statements; cited from earlier work
[7] = high dose 25 μg/100 g BW pellet
[8] = Wistar rats, high dose 250 μg/kg BW/day

N[C@@H](Cc1ccc(Oc2ccc(O)c(I)c2)c(I)c1)C(=O)O [3,3′-T2, 3′,3-diiodothyronine]
Food intake immediately after the pellet (Wistar rats [1]; 25 μg/100 g BW pellet, from day 4 until day 7): decrease
Food intake (appetite) (Wistar rats [1]; high dose 25 μg/100 g BW pellet, 21 days, vs placebo): higher value as compared to those of placebo animals
Growth rate (body weight) (Wistar rats [1]; high dose 25 μg/100 g BW, subcutaneous pellet, 21 days, vs placebo): did not show any weight gain
Liver mitochondrial respiratory rate, non-phosphorylating (state 4, oligomycin) (liver mitochondria): much higher as compared to placebo
Liver mitochondrial respiratory rate, phosphorylating (state 3, ADP) (liver mitochondria): very significant increased respiratory rate
Muscle mitochondrial respiration, non-phosphorylating (state 4) (muscle mitochondria): failed to substantially affect
Muscle mitochondrial respiration, phosphorylating (state 3) (muscle mitochondria): failed to substantially affect
Fat mass (Wistar rats [2]; 250 μg/kg BW pellet): significantly decreased
Brown adipose tissue mass (Wistar rats [2]; [7]): significantly increased
Muscle mass (lean body mass) (Wistar rats [2]; [7]): not affected
Respiratory quotient (RQ) during the day (diurnal period) (Wistar rats [3]): lower than that of placebo
Respiratory quotient (RQ) during the night (Wistar rats [3]): almost the same as those described for rT3
Cholesterol plasmatic concentration (Wistar rats [4]; Wistar rats, 250 μg/kg BW/day): significantly lower
Plasma free fatty acids (FFA) (Wistar rats [4]; [8]): higher
Triglycerides plasmatic concentration (Wistar rats [4]; [8]): significantly lower
Fasting glucose plasmatic concentration (Wistar rats [4]; normal (non diabetic) Wistar rats, 250 μg/kg BW/day): slightly increased

NC(Cc1cc(I)c(Oc2ccc(O)cc2)c(I)c1)C(=O)O (centres unmarked) [3,5-T2]
Fat deposit [5]: less fat deposit
Weight gain [5]: gained less weight

N[C@@H](Cc1cc(I)c(Oc2ccc(O)c(I)c2)c(I)c1)C(=O)O [T3]
Binding to the nuclear (TH) receptors [6]: binds very efficiently

N[C@@H](Cc1cc(I)c(Oc2cc(I)c(O)c(I)c2)c(I)c1)C(=O)O [T4, thyroxine]
Binding to the nuclear (TH) receptors [6]: binds less efficiently
